# Assay results published in ChEMBL document CHEMBL4393696, “5-Arylisothiazol-3(2H)-one-1,(1)-(di)oxides: A new class of selective tumor-associated carbonic anhydrases (hCA IX and XII) inhibitors” (Eur J Med Chem, 2019).
# pKi: −log10 of the molar value.
# Experiments:
# Carbonic anhydrase 1 = Carbonic anhydrase 1 (Homo sapiens, UniProt P00915); assay: Inhibition of human carbonic anhydrase 1 assessed as inhibitory constant preincubated for 15 mins by stopped-flow CO2 hydration assay
# Carbonic anhydrase 2 = Carbonic anhydrase 2 (Homo sapiens, UniProt P00918); assay: Inhibition of human carbonic anhydrase 2 assessed as inhibitory constant preincubated for 15 mins by stopped-flow CO2 hydration assay
# Carbonic anhydrase 9 = Carbonic anhydrase 9 (Homo sapiens, UniProt Q16790); assay: Inhibition of human carbonic anhydrase 9 assessed as inhibitory constant preincubated for 15 mins by stopped-flow CO2 hydration assay
# Carbonic anhydrase 12 = Carbonic anhydrase 12 (Homo sapiens, UniProt O43570); assay: Inhibition of human carbonic anhydrase 12 assessed as inhibitory constant preincubated for 15 mins by stopped-flow CO2 hydration assay
# Chain of Carbonic anhydrase 12 (O43570 whole entry): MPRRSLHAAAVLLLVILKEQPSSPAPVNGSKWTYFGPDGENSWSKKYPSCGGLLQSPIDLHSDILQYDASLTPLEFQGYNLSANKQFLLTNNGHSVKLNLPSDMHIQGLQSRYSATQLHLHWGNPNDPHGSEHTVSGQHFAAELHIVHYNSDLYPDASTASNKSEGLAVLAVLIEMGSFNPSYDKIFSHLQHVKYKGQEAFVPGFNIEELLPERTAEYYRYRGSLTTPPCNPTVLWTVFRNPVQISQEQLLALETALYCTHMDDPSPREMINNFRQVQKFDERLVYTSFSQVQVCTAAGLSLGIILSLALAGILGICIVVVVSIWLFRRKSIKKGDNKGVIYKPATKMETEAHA
# Chain of Carbonic anhydrase 1 (P00915 whole entry): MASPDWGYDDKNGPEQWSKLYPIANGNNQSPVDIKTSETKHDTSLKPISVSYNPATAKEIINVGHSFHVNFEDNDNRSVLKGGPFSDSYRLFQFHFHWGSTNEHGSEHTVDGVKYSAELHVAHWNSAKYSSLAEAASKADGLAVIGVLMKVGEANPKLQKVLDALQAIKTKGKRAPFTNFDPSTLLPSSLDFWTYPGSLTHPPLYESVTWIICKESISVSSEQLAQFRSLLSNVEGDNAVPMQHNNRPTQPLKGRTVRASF
SMILES,pKi (Carbonic anhydrase 1),pKi (Carbonic anhydrase 2),pKi (Carbonic anhydrase 9),pKi (Carbonic anhydrase 12)
CC(C)(C)N1C(=O)C=C(c2ccccc2)S1(=O)=O,< 5.00,5.81,7.55,
CC(C)(C)N1C(=O)C=C(c2cc3ccccc3n2S(=O)(=O)c2ccccc2)S1(=O)=O,< 5.00,< 5.00,6.46,
O=c1cc(-c2ccccc2)[s+]([O-])[nH]1 (stereo not drawn),< 5.00,< 5.00,7.34,
CC(C)(C)n1c(=O)cc(-c2ccccc2)[s+]1[O-] (stereo not drawn),< 5.00,< 5.00,8.35,
O=c1cc(-c2cn(S(=O)(=O)c3ccccc3)c3ccccc23)[s+]([O-])[nH]1 (stereo not drawn),< 5.00,< 5.00,7.00,
O=C1C=C(c2ccccc2)S(=O)(=O)N1,< 5.00,< 5.00,7.39,
CC(C)(C)OC(=O)n1c(-c2cc(=O)n(C(C)(C)C)[s+]2[O-])cc2ccccc21 (stereo not drawn),< 5.00,< 5.00,7.32,
CC(C)(C)N1C(=O)C=C(Cl)S1(=O)=O,,< 5.00,6.64,
CC(C)(C)n1c(=O)cc(-c2cn(S(=O)(=O)c3ccccc3)c3ccccc23)[s+]1[O-] (stereo not drawn),< 5.00,5.68,8.06,
CC(C)(C)N1C(=O)C=C(c2cn(S(=O)(=O)c3ccccc3)c3ccccc23)S1(=O)=O,< 5.00,7.09,8.37,
CC(C)(C)n1sc(Cl)cc1=O,,< 5.00,7.01,
CC(C)(C)n1c(=O)cc(-c2cc3ccccc3s2)[s+]1[O-] (stereo not drawn),,< 5.00,6.88,
CC(C)(C)n1c(=O)cc(-c2ccc3ccccc3c2)[s+]1[O-] (stereo not drawn),,< 5.00,7.80,
CC(C)(C)n1c(=O)cc(-c2cccs2)[s+]1[O-] (stereo not drawn),< 5.00,< 5.00,7.31,
CC(C)(C)n1c(=O)cc(-c2cc3ccccc3n2S(=O)(=O)c2ccccc2)[s+]1[O-] (stereo not drawn),< 5.00,< 5.00,7.39,
CC(C)(C)N1C(=O)C=C(c2cccs2)S1(=O)=O,< 5.00,< 5.00,6.66,
COc1cc(-c2cc(=O)n(C(C)(C)C)[s+]2[O-])cc(OC)c1OC (stereo not drawn),< 5.00,< 5.00,6.63,
CC(C)(C)n1c(=O)cc(-c2cc3ccccc3o2)[s+]1[O-] (stereo not drawn),,< 5.00,6.60,
CC(C)(C)n1c(=O)cc(Cl)[s+]1[O-] (stereo not drawn),6.34,< 5.00,6.77,7.27
